Several values for one entry are separate records, joined by “and”; a condition that tells them apart may be missing. Equal entries are not always repeated.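 Test compounds were applied to cells in 96-well plates for 48 hours at 5 doses. GI50 = concentration required for 50% inhibition of growth. TGI marks complete inhibition of growth.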
How the values were obtained:
Experiment in all cases: NCI tumour cell line growth inhibition, 48 h; in the data active means GI50 below about 0.43 µM; inactive means the rest
786-0 renal = test system: 786-0 renal
A498 renal = test system: A498 renal
A549 NSCLC = test system: A549 NSCLC
ACHN renal = test system: ACHN renal
BT-549 breast = test system: BT-549 breast
CCRF-CEM leukemia = test system: CCRF-CEM leukemia
COLO 205 colon = test system: COLO 205 colon
DU-145 prostate = test system: DU-145 prostate
EKVX NSCLC = test system: EKVX NSCLC
HCC-2998 colon = test system: HCC-2998 colon
HCT-116 colon = test system: HCT-116 colon
HCT-15 colon = test system: HCT-15 colon
HL-60(TB) leukemia = test system: HL-60(TB) leukemia
HOP-62 NSCLC = test system: HOP-62 NSCLC
HOP-92 NSCLC = test system: HOP-92 NSCLC
HS 578T breast = test system: HS 578T breast
HT29 colon = test system: HT29 colon
IGROV1 ovarian = test system: IGROV1 ovarian
K-562 leukemia = test system: K-562 leukemia
KM12 colon = test system: KM12 colon
LOX IMVI melanoma = test system: LOX IMVI melanoma
M14 melanoma = test system: M14 melanoma
MALME-3M melanoma = test system: MALME-3M melanoma
MCF7 breast = test system: MCF7 breast
MDA-MB-231 breast = test system: MDA-MB-231 breast
MDA-MB-435 = test system: MDA-MB-435
MOLT-4 leukemia = test system: MOLT-4 leukemia
NCI-H226 lung = test system: NCI-H226 lung
NCI-H23 lung = test system: NCI-H23 lung
NCI-H460 lung = test system: NCI-H460 lung
NCI-H522 lung = test system: NCI-H522 lung
NCI/ADR-RES ovarian = test system: NCI/ADR-RES ovarian
OVCAR-3 ovarian = test system: OVCAR-3 ovarian
OVCAR-4 ovarian = test system: OVCAR-4 ovarian
OVCAR-5 ovarian = test system: OVCAR-5 ovarian
OVCAR-8 ovarian = test system: OVCAR-8 ovarian
PC-3 prostate = test system: PC-3 prostate
RPMI-8226 leukemia = test system: RPMI-8226 leukemia
SF-268 CNS = test system: SF-268 CNS
SF-295 CNS = test system: SF-295 CNS
SF-539 CNS = test system: SF-539 CNS
SK-MEL-2 melanoma = test system: SK-MEL-2 melanoma
SK-MEL-5 melanoma = test system: SK-MEL-5 melanoma
SK-OV-3 ovarian = test system: SK-OV-3 ovarian
SN12C renal = test system: SN12C renal
SNB-19 CNS = test system: SNB-19 CNS
SNB-75 CNS = test system: SNB-75 CNS
SR leukemia = test system: SR leukemia
SW-620 colon = test system: SW-620 colon
TK-10 renal = test system: TK-10 renal
U251 CNS = test system: U251 CNS
UACC-257 melanoma = test system: UACC-257 melanoma
UACC-62 melanoma = test system: UACC-62 melanoma
UO-31 renal = test system: UO-31 renal

COC(=O)CC12CC(NC(=O)c3csc([C@@H](C[C@H](C(C)C)N(C)C(=O)[C@@H](NC(=O)[C@H]4CCCCN4C)C(C)C)OC(C)=O)n3)(C1)C2
> 33.3 µM: TGI (786-0 renal) | TGI (A549 NSCLC) | TGI (ACHN renal) | TGI (CCRF-CEM leukemia) | TGI (EKVX NSCLC) | TGI (HCC-2998 colon) | TGI (HCT-116 colon) | TGI (HCT-15 colon) | TGI (HOP-62 NSCLC) | TGI (HS 578T breast) | TGI (HT29 colon) | TGI (IGROV1 ovarian) | TGI (K-562 leukemia) | TGI (KM12 colon) | TGI (LOX IMVI melanoma) | TGI (MCF7 breast) | TGI (MOLT-4 leukemia) | TGI (NCI-H23 lung) | TGI (NCI-H460 lung) | TGI (OVCAR-4 ovarian) | TGI (OVCAR-5 ovarian) | TGI (OVCAR-8 ovarian) | TGI (PC-3 prostate) | TGI (RPMI-8226 leukemia) | TGI (SF-268 CNS) | TGI (SF-295 CNS) | TGI (SK-MEL-2 melanoma) | TGI (SK-OV-3 ovarian) | TGI (SN12C renal) | TGI (SNB-19 CNS) | TGI (SR leukemia) | TGI (SW-620 colon) | TGI (TK-10 renal) | TGI (U251 CNS) | TGI (UACC-257 melanoma) | TGI (UACC-62 melanoma) | TGI (UO-31 renal)
455 nM and 326 nM: GI50 (OVCAR-4 ovarian)
22.4 nM: TGI (A498 renal)
48.7 nM and 74 nM: TGI (SK-MEL-5 melanoma)
4.73 µM: TGI (HOP-92 NSCLC)
inactive: GI50 (UACC-257 melanoma) 23.7 µM
246 nM and 253 nM: TGI (BT-549 breast)
9.61 nM and 40.1 nM: TGI (COLO 205 colon)
active: GI50 (786-0 renal) 6.06 nM and 14 nM | GI50 (A498 renal) 3.84 nM and 5.45 nM | GI50 (A549 NSCLC) 7.77 nM and 13 nM | GI50 (ACHN renal) 26 nM | GI50 (BT-549 breast) 5.75 nM and 22 nM | GI50 (CCRF-CEM leukemia) 3.6 nM and 7.18 nM | GI50 (COLO 205 colon) 2.7 nM and 6.84 nM | GI50 (DU-145 prostate) 3.52 nM and 8.25 nM | GI50 (EKVX NSCLC) 9.49 nM and 22.9 nM | GI50 (HCC-2998 colon) 30.3 nM and 14.8 nM | GI50 (HCT-116 colon) 3.37 nM and 7.78 nM | GI50 (HCT-15 colon) 18.3 nM and 25.4 nM | GI50 (HL-60(TB) leukemia) 2.82 nM and 6.85 nM | GI50 (HOP-62 NSCLC) 4.98 nM and 8.38 nM | GI50 (HOP-92 NSCLC) 17.4 nM | GI50 (HS 578T breast) 3.96 nM and 9.02 nM | GI50 (HT29 colon) 3.64 nM and 5.5 nM | GI50 (IGROV1 ovarian) 9.17 nM and 16.2 nM | GI50 (K-562 leukemia) 1.94 nM and 3.33 nM | GI50 (KM12 colon) 4.41 nM and 9.39 nM | GI50 (LOX IMVI melanoma) 4.46 nM and 12.1 nM | GI50 (M14 melanoma) 3.55 nM | GI50 (MALME-3M melanoma) 4.91 nM | GI50 (MCF7 breast) 2.89 nM and 4.05 nM | GI50 (MDA-MB-231 breast) 6.61 nM and 15.2 nM | GI50 (MDA-MB-435) 0.341 nM and 3.33 nM | GI50 (MOLT-4 leukemia) 6.15 nM and 14.3 nM | GI50 (NCI-H226 lung) 4.92 nM and 21.7 nM | GI50 (NCI-H23 lung) 9.8 nM and 16.7 nM | GI50 (NCI-H460 lung) 3.22 nM and 11.6 nM | GI50 (NCI-H522 lung) 1.07 nM and 3.33 nM | GI50 (NCI/ADR-RES ovarian) 65.9 nM and 122 nM | GI50 (OVCAR-3 ovarian) 2.9 nM and 3.33 nM | GI50 (OVCAR-5 ovarian) 4.9 nM and 16.5 nM | GI50 (OVCAR-8 ovarian) 5.45 nM and 13.1 nM | GI50 (PC-3 prostate) 3.96 nM and 10.1 nM | GI50 (RPMI-8226 leukemia) 3.51 nM and 12.9 nM | GI50 (SF-268 CNS) 7.4 nM and 20.4 nM | GI50 (SF-295 CNS) 3.27 nM and 9.42 nM | GI50 (SF-539 CNS) 2.89 nM and 7.59 nM | GI50 (SK-MEL-2 melanoma) 4.41 nM and 9.55 nM | GI50 (SK-MEL-5 melanoma) 1.91 nM and 4.12 nM | GI50 (SK-OV-3 ovarian) 4.39 nM and 10.5 nM | GI50 (SN12C renal) 4.46 nM and 20.2 nM | GI50 (SNB-19 CNS) 3.1 nM and 11.4 nM | GI50 (SNB-75 CNS) 2.65 nM | GI50 (SR leukemia) 1.87 nM and 3.33 nM | GI50 (SW-620 colon) 3.5 nM and 10.2 nM | GI50 (TK-10 renal) 415 nM | GI50 (U251 CNS) 3.6 nM and 13 nM | GI50 (UACC-62 melanoma) 3.25 nM and 6.22 nM
19.8 nM and 26.9 nM: TGI (SF-539 CNS)
11.1 nM and 18.1 nM: TGI (HL-60(TB) leukemia)
5.93 nM and 14.9 nM: TGI (NCI-H522 lung)
1.65 nM and 4.49 nM: TGI (MDA-MB-435)
95.8 nM and 515 nM: TGI (MDA-MB-231 breast)
